The values that follow are results of earlier work, collected in PubChem BioAssay AID1259409 (Chemical Carcinogenesis Research Information System (CCRIS), 2018).

For this series, the system named is rodent chemically induced tumor inhibition, incidence and multiplicity. The series is described as follows: CCRIS tumor inhibitor studies. The conditions noted are these: Carcinogen: AZOXYMETHANE, 25843-45-2, Dose [Inhibitor]: 0, Route [Inhibitor]: ORAL, Species: RAT, Strain/Sex: F344/MALE, Promoter: NONE USED.

In the case of `CN1C(C(=O)Nc2ccccn2)=C(O)c2ccccc2S1(=O)=O`, the “tumour outcome (control, treated, inhibition, significance)” value by setting is: (150 PPM IN DIET BEGINNING 1 WK POST CARCINOGEN DOSE FOR DURATION OF STUDY (STUDY DURATION: 56 WK), Target Tissue: Type of Lesion: COLON: ADENOMA, Dose [Carcinogen]: 29.6 MG/KG IN NORMAL SALINE ONCE) 11/30 (37%), 9/30 (30%), 19%, not calculated; (150 PPM IN DIET BEGINNING 1 WK POST CARCINOGEN DOSE FOR DURATION OF STUDY (STUDY DURATION: 56 WK), Target Tissue: Type of Lesion: SMALL INTESTINE: ADENOCARCINOMA, Dose [Carcinogen]: 29.6 MG/KG IN NORMAL SALINE ONCE) 10/30 (33%), 8/30 (27%), 20%, not calculated; (150 PPM IN DIET BEGINNING 1 WK POST CARCINOGEN DOSE FOR DURATION OF STUDY (STUDY DURATION: 56 WK), Target Tissue: Type of Lesion: SMALL INTESTINE: ADENOMA, Dose [Carcinogen]: 29.6 MG/KG IN NORMAL SALINE ONCE) 1/30 (3%), 1/30 (3%), 0%, not calculated; (150 PPM IN DIET FOR 29 WK BEGINNING 1 WK POST CARCINOGEN TREATMENT (STUDY DURATION: 32 WK), Target Tissue: Type of Lesion: COLON: ADENOMA, Dose [Carcinogen]: 15 MG/KG BW 1/WK FOR 2 WK) 77%, 33%, 57%, p<0.05; (150 PPM IN DIET FOR 29 WK BEGINNING 1 WK POST CARCINOGEN TREATMENT (STUDY DURATION: 32 WK), Target Tissue: Type of Lesion: COLON: CARCINOMA, Dose [Carcinogen]: 15 MG/KG BW 1/WK FOR 2 WK) 53%, 23%, 57%, p<0.05; (200 PPM IN DIET BEGINNING 1 WK PRIOR TO CARCINOGEN TREATMENT FOR DURATION OF STUDY (STUDY DURATION: 54 WK), Target Tissue: Type of Lesion: COLON: ADENOCARCINOMA, Dose [Carcinogen]: 15 MG/KG/BW 1/WK FOR 2 WK) 58%, 33%, 43%, p<0.05. Further, the “tumour outcome (control, treated, inhibition, significance)” value is on record as 6%, 8%, -33%, not calculated (200 PPM IN DIET BEGINNING 1 WK PRIOR TO CARCINOGEN TREATMENT FOR DURATION OF STUDY (STUDY DURATION: 54 WK), Target Tissue: Type of Lesion: COLON: ADENOMA., Dose [Carcinogen]: 15 MG/KG/BW 1/WK FOR 2 WK); 72%, 33%, 54%, p<0.001 (200 PPM IN DIET BEGINNING PRIOR TO CARCINOGEN DOSE AND CONTINUING FOR DURATION OF STUDY (STUDY DURATION: 54 WK), Target Tissue: Type of Lesion: COLON: ADENOCARCINOMA, Dose [Carcinogen]: 15 MG/KG 1/WK FOR 2 WK); 14%, 3%, 79%, not calculated (200 PPM IN DIET BEGINNING PRIOR TO CARCINOGEN DOSE AND CONTINUING FOR DURATION OF STUDY (STUDY DURATION: 54 WK), Target Tissue: Type of Lesion: COLON: ADENOMA, Dose [Carcinogen]: 15 MG/KG 1/WK FOR 2 WK); 50%, 17%, 66%, p<0.01 (200 PPM IN DIET BEGINNING PRIOR TO CARCINOGEN DOSE AND CONTINUING FOR DURATION OF STUDY (STUDY DURATION: 54 WK), Target Tissue: Type of Lesion: SMALL INTESTINE: ADENOCARCINOMA, Dose [Carcinogen]: 15 MG/KG 1/WK FOR 2 WK); 3%, 0%, 100%, not calculated (200 PPM IN DIET BEGINNING PRIOR TO CARCINOGEN DOSE AND CONTINUING FOR DURATION OF STUDY (STUDY DURATION: 54 WK), Target Tissue: Type of Lesion: SMALL INTESTINE: ADENOMA, Dose [Carcinogen]: 15 MG/KG 1/WK FOR 2 WK); 52%, 35%, 33%, p<0.05 (200 PPM IN DIET FOR 56 WK BEGINNING 2 WK PRIOR TO CARCINOGEN TREATMENT (STUDY DURATION: 56 WK), Target Tissue: Type of Lesion: COLON(DISTAL): TUMOR, Dose [Carcinogen]: 15 MG/KG 1/WK FOR 2 WK). Also, the “tumour outcome (control, treated, inhibition, significance)” value runs as follows: (200 PPM IN DIET FOR 56 WK BEGINNING 2 WK PRIOR TO CARCINOGEN TREATMENT (STUDY DURATION: 56 WK), Target Tissue: Type of Lesion: COLON(PROXIMAL): TUMOR, Dose [Carcinogen]: 15 MG/KG 1/WK FOR 2 WK) 38%, 15%, 61%, p<0.01; (200 PPM IN DIET FOR 56 WK BEGINNING 2 WK PRIOR TO CARCINOGEN TREATMENT (STUDY DURATION: 56 WK), Target Tissue: Type of Lesion: SMALL INTESTINE(DISTAL): TUMOR, Dose [Carcinogen]: 15 MG/KG 1/WK FOR 2 WK) 12%, 6%, 50%, not significant; (200 PPM IN DIET FOR 56 WK BEGINNING 2 WK PRIOR TO CARCINOGEN TREATMENT (STUDY DURATION: 56 WK), Target Tissue: Type of Lesion: SMALL INTESTINE(PROXIMAL): TUMOR, Dose [Carcinogen]: 15 MG/KG 1/WK FOR 2 WK) 33%, 11%, 67%, p<0.05.
